Results on 27 compounds are retold here after patent US20080200448A1, “New Pyridine Analogues VIII 518” (ASTRAZENECA AB, priority 2007, published 2008).

The target of this experiment is T1, P2Y12 receptor (Homo sapiens, UniProt Q9H244).
T1 construct: expressed in transfected cells; host or cells: CHO cells (membrane preparation)
T1 sequence (Q9H244 whole entry): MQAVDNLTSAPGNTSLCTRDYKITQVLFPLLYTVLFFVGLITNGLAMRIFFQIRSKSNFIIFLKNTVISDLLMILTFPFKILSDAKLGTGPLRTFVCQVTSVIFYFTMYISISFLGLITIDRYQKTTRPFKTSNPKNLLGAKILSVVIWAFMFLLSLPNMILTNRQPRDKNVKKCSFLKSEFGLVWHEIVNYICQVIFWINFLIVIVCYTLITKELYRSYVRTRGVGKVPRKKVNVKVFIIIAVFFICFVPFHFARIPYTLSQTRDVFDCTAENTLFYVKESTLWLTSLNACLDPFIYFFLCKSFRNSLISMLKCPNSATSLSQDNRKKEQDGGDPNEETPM
In words: Functional inhibition of 2-Me-S-ADP induced P2Y12 signalling (35S-GTPγS binding, cell membranes). To be noted: 35S-GTPγS assay, membranes, EC80 concentration of 2-methyl-thio-adenosine diphosphate, 30° C. for 45 min; read-out: GTPγS (IC50 μM). It counts as biochemical. On the procedure:
Functional inhibition of- the P2Y12 receptor can be measured by in vitro assays using cell membranes from P2Y12 transfected CHO-cells, the methodology is indicated below.
Functional inhibition of 2-Me-S-ADP induced P2Y12 signalling: 5 μg of membranes were diluted in 200 μl of 200 mM NaCl, 1 mM MgCl2, 50 mM HEPES (pH 7.4), 0.01% BSA, 30 μg/ml saponin and 10 μM GDP. To this was added an EC80 concentration of agonist (2-methyl-thio-adenosine diphosphate), the required concentration of test compound and 0.1 μCi ^35S-GTPγS. The reaction was allowed to proceed at 30° C. for 45 min. Samples were then transferred on to GF/B filters using a cell harvester and washed with wash buffer (50 mM Tris (pH 7.4), 5 mM MgCl2, 50 mM NaCl). Filters were then covered with scintilant and counted for the amount of ^35S-GTPγS retained by the filter. Maximum activity was that determined in the presence of the agonist and minimum activity in the absence of the agonist following subtraction of the value determined for non-specific activity. The effect of compounds at various concentrations was plotted according to the equation
y=A+((B−A)/(1+((C/x)̂D)))
and IC50 estimated where A is the bottom plateau of the curve i.e. the final minimum y value B is the top of the plateau of the curve i.e. the final maximum y value C is the x value at the middle of the curve. This represents the log EC50 value when A+B=100 D is the slope factor. x is the original known x values. Y is the original known y values.
As for `CCOC(=O)c1cc(C#N)c(N2CCC(C(=O)NS(=O)(=O)Cc3ccc([Si](C)(C)C)cc3)CC2)nc1CN1CCCC1=O` [Example 100, Ethyl 5-cyano-2-[(2-oxopyrrolidin-1-yl)methyl]-6-[4-({[4-(trimethylsilyl)benzyl]sulfonyl}carbamoyl)piperidin-1-yl]nicotinate], the IC50 is 0.138 µM.
Then `CCOC(=O)c1cc(C#N)c(N2CCC(C(=O)NS(=O)(=O)Cc3ccc(Cl)cc3F)CC2)nc1CN1CCCC1=O` [Example 44, Ethyl 6-(4-{[(4-chloro-2-fluorobenzyl)sulfonyl]carbamoyl}piperidin-1-yl)-5-cyano-2-[(2-oxopyrrolidin-1-yl)methyl]nicotinate], with 0.01 µM.
Then `CCOC(=O)c1cc(C#N)c(N2CCC(C(=O)NS(=O)(=O)Cc3ccccc3)CC2)nc1SCCO` [Example 19, Ethyl 6-{4-[(benzylsulfonyl)carbamoyl]piperidin-1-yl}-5-cyano-2-[(2-hydroxyethyl)thio]nicotinate], with 0.016 µM.
As to `CC(C)OC(=O)c1cc(C#N)c(N2CCC(C(=O)NS(=O)(=O)Cc3ccc(C(F)(F)F)cc3)CC2)nc1CN1CCCC1=O` [Example 50, Isopropyl 5-cyano-2-[(2-oxopyrrolidin-1-yl)methyl]-6-[4-({[4-(trifluoromethyl)benzyl]sulfonyl}carbamoyl)piperidin-1-yl]nicotinate], the IC50 came out at 0.02 µM.
With `CCOC(=O)c1cc(C#N)c(N2CCC(C(=O)NS(=O)(=O)Cc3ccccc3)CC2)nc1SCC(=O)OC(C)C` [Example 111, Ethyl 6-{4-[(benzylsulfonyl)carbamoyl]piperidin-1-yl}-5-cyano-2-[(2-isopropoxy-2-oxoethyl)thio]nicotinate], the IC50 was 0.016 µM.
The result for `CCOC(=O)c1cc(C#N)c(N2CCC(C(=O)NS(=O)(=O)Cc3ccccc3)CC2)nc1CN1C(=O)CCC1=O` [Example 15, Ethyl 6-{4-[(benzylsulfonyl)carbamoyl]piperidin-1-yl}-5-cyano-2-[(2,5-dioxopyrrolidin-1-yl)methyl]nicotinate] reads 0.017 µM.
Regarding `CCOC(=O)c1cc(C#N)c(N2CCC(C(=O)NS(=O)(=O)Cc3ccccc3)CC2)nc1CSCC` [Example 27, Ethyl 6-{4-[(benzylsulfonyl)carbamoyl]piperidin-1-yl}-5-cyano-2-[(ethylthio)methyl]nicotinate], the IC50 was 0.057 µM.
As to `CCOC(=O)CSc1nc(N2CCC(C(=O)NS(=O)(=O)Cc3ccc(F)cc3Cl)CC2)c(C#N)cc1C(=O)OCC` [Example 108, Ethyl 6-(4-{[(2-chloro-4-fluorobenzyl)sulfonyl]carbamoyl}piperidin-1-yl)-5-cyano-2-[(2-ethoxy-2-oxoethyl)thio]nicotinate], the IC50 is 0.072 µM.
Then `CCOC(=O)c1cc(Cl)c(N2CCC(C(=O)NS(=O)(=O)Cc3ccc(F)cc3F)CC2)nc1CN1CCCC1=O` [Example 89, Ethyl 5-chloro-6-(4-{[(2,4-difluorobenzyl)sulfonyl]carbamoyl}piperidin-1-yl)-2-[(2-oxopyrrolidin-1-yl)methyl]nicotinate], with 0.033 µM.
Then `CC(C)OC(=O)c1cc(C#N)c(N2CCC(C(=O)NS(=O)(=O)Nc3ccc(F)cc3)CC2)nc1CN1CCCC1=O` [Example 80, Isopropyl 5-cyano-6-[4-({[(4-fluorophenyl)amino]sulfonyl}carbamoyl)piperidin-1-yl]-2-[(2-oxopyrrolidin-1-yl)methyl]nicotinate], with 0.038 µM; and `CCOC(=O)c1cc(C#N)c(N2CCC(C(=O)NS(=O)(=O)Cc3ccc(OC)cc3)CC2)nc1CN1CCCCC1=O` [Example 68, Ethyl 5-cyano-6-(4-{[(4-methoxybenzyl)sulfonyl]carbamoyl}piperidin-1-yl)-2-[(2-oxopiperidin-1-yl)methyl]nicotinate], with 0.024 µM.
Then `CCOC(=O)c1cc(C#N)c(N2CCC(C(=O)NS(=O)(=O)CC3CCC(C)CC3)CC2)nc1CN1CCCC1=O` (stereo not drawn) [Example 37, Ethyl 5-cyano-6-[4-({[(4-methylcyclohexyl)methyl]sulfonyl}carbamoyl)piperidin-1-yl]-2-[(2-oxopyrrolidin-1-yl)methyl]nicotinate], with 0.03 µM; and `CCOC(=O)c1cc(C#N)c(N2CCC(C(=O)NS(=O)(=O)Cc3ccccc3)CC2)nc1CSCC(=O)N(C)C` [Example 123, Ethyl 6-{4-[(benzylsulfonyl)carbamoyl]piperidin-1-yl}-5-cyano-2-({[2-(dimethylamino)-2-oxoethyl]thio}methyl)nicotinate], with 0.057 µM; and `CCCOC(=O)c1cc(Cl)c(N2CCC(C(=O)NS(=O)(=O)N(C)c3ccc(F)cc3)CC2)nc1CN1CCCC1=O` [Example 95, Propyl 5-chloro-6-[4-({[(4-fluorophenyl)(methyl)amino]sulfonyl}carbamoyl)piperidin-1-yl]-2-[(2-oxopyrrolidin-1-yl)methyl]nicotinate], with 0.155 µM.
Turning to `CC(C)OC(=O)c1cc(C#N)c(N2CCC(C(=O)NS(=O)(=O)Cc3ccc(Cl)cc3F)CC2)nc1CN1CCCC1=O` [Example 52, Isopropyl 6-(4-{[(4-chloro-2-fluorobenzyl)sulfonyl]carbamoyl}piperidin-1-yl)-5-cyano-2-[(2-oxopyrrolidin-1-yl)methyl]nicotinate], the IC50 stood at 0.014 µM.
Then `CCOC(=O)c1cc(C#N)c(N2CCC(C(=O)NS(=O)(=O)Cc3ccccc3)CC2)nc1CN=[N+]=[N-]` [Example 11, Ethyl 2-(azidomethyl)-6-{4-[(benzylsulfonyl)carbamoyl]piperidin-1-yl}-5-cyanonicotinate], with 0.025 µM.
Then `CCOC(=O)c1cc(C#N)c(N2CCC(C(=O)NS(=O)(=O)Cc3ccc(F)cc3Cl)CC2)nc1CN1CCCC1=O` [Example 43, Ethyl 6-(4-{[(2-chloro-4-fluorobenzyl)sulfonyl]carbamoyl}piperidin-1-yl)-5-cyano-2-[(2-oxopyrrolidin-1-yl)methyl]nicotinate], with 0.018 µM; and `CCOC(=O)COc1nc(N2CCC(C(=O)NS(=O)(=O)Cc3ccccc3)CC2)c(C#N)cc1C(=O)OCC` [Example 8, Ethyl 6-{4-[(benzylsulfonyl)carbamoyl]piperidin-1-yl}-5-cyano-2-(2-ethoxy-2-oxoethoxy)nicotinate], with 0.039 µM.
The result for `CCOC(=O)c1cc(C#N)c(N2CCC(C(=O)NS(=O)(=O)Nc3ccccc3)CC2)nc1CN1CCCC1=O` [Example 55, Ethyl 6-{4-[(anilinosulfonyl)carbamoyl]piperidin-1-yl}-5-cyano-2-[(2-oxopyrrolidin-1-yl)methyl]nicotinate] reads 0.03 µM.
On to `CCOC(=O)c1cc(Cl)c(N2CCC(C(=O)NS(=O)(=O)Cc3ccc(Cl)cc3)CC2)nc1SCCNC(C)=O` [Example 104, Ethyl 2-[(2-acetamidoethyl)thio]-5-chloro-6-(4-{[(4-chlorobenzyl)sulfonyl]carbamoyl}piperidin-1-yl)nicotinate], for which the IC50 was 0.057 µM.
Regarding `CCOC(=O)c1cc(C#N)c(N2CCC(C(=O)NS(=O)(=O)Cc3ccc(C(F)(F)F)cc3)CC2)nc1CN1CCCC1=O` [Example 35, Ethyl 5-cyano-2-[(2-oxopyrrolidin-1-yl)methyl]-6-[4-({[4-(trifluoromethyl)benzyl]sulfonyl}carbamoyl)piperidin-1-yl]nicotinate], the IC50 was 0.0097 µM.
Then `CCOC(=O)c1cc(C#N)c(N2CCC(C(=O)NS(=O)(=O)Cc3ccccc3)CC2)nc1OCCn1cccc1` [Example 113, Ethyl 6-{4-[(benzylsulfonyl)carbamoyl]piperidin-1-yl}-5-cyano-2-[2-(1H-pyrrol-1-yl)ethoxy]nicotinate], with 0.05 µM; and `CCOC(=O)c1cc(C#N)c(N2CCC(C(=O)NS(=O)(=O)Nc3ccccc3)CC2)nc1CN1CCCCC1=O` [Example 64, Ethyl 6-{4-[(anilinosulfonyl)carbamoyl]piperidin-1-yl}-5-cyano-2-[(2-oxopiperidin-1-yl)methyl]nicotinate], with 0.14 µM.
Then `CCOC(=O)c1cc(C#N)c(N2CCC(C(=O)NS(=O)(=O)Cc3ccccc3)CC2)nc1OCCO` [Example 18, Ethyl 6-{4-[(benzylsulfonyl)carbamoyl]piperidin-1-yl}-5-cyano-2-(2-hydroxyethoxy)nicotinate], with 0.031 µM; and `CCOC(=O)c1cc(Cl)c(N2CCC(C(=O)NS(=O)(=O)Cc3ccc(C)cc3)CC2)nc1CN1CCCC1=O` [Example 87, Ethyl 5-chloro-6-(4-{[(4-methylbenzyl)sulfonyl]carbamoyl}piperidin-1-yl)-2-[(2-oxopyrrolidin-1-yl)methyl]nicotinate], with 0.037 µM.
Then `CCOC(=O)c1cc(C#N)c(N2CCC(C(=O)NS(=O)(=O)Cc3ccccc3)CC2)nc1CSCc1nccn1C` [Example 116, Ethyl 6-{4-[(benzylsulfonyl)carbamoyl]piperidin-1-yl}-5-cyano-2-({[(1-methyl-1H-imidazol-2-yl)methyl]thio}methyl)nicotinate], with 1.05 µM; and `CCOC(=O)c1cc(F)c(N2CCC(C(=O)NS(=O)(=O)Cc3ccccc3)CC2)nc1CN1CCCC1=O` [Example 127, Ethyl 6-{4-[(benzylsulfonyl)carbamoyl]piperidin-1-yl}-5-fluoro-2-[(2-oxopyrrolidin-1-yl)methyl]nicotinate], with 0.079 µM.

One may read the IC50 as the concentration that gives 50% inhibition.
